In the supplement of paper PMC12819154, “High-throughput peptide-centric local stability assay extends protein–ligand identification to membrane proteins, tissues and bacteria” (Nature Structural & Molecular Biology, 2025):

Columns and labels:
Experiment in all cases: pEC50 of peptide local stability change
UniProt P00452 = settings: peptide sequence: VKAVELFSLMMQER; direction: stabilized; replicate design: treated separately
Method: (§1)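 Dose-response HT-PELSA: desalted E. coli lysate treated separately per replicate with ATP (10 uM to 10 mM, 7 doses) for 30 min at 25 C, then a 4 min trypsin pulse at 22 C. Peptide ratio vs control was fitted with a 4-parameter log-logistic model (R2 > 0.9 in at least 3 replicates, CV of pEC50 <= 0.25); value is the mean pEC50 across replicates for stabilized or destabilized peptides.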

UniProt P03018 = settings: peptide sequence: EVYHRPSR; direction: stabilized; replicate design: treated separately
Method: as §1

UniProt P04425 = settings: peptide sequence: GTLIVNKPQSLR; direction: stabilized; replicate design: treated separately
Chain of UniProt P04425 (P04425 whole entry): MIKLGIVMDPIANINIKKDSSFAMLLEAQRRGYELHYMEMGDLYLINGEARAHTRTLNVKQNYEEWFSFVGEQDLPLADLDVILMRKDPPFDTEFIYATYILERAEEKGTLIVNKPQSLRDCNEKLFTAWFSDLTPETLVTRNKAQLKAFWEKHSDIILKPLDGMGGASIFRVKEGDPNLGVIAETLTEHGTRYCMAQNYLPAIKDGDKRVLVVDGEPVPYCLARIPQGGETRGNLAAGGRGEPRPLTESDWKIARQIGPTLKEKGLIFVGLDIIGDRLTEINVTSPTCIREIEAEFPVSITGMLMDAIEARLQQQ
Method: as §1

UniProt P04993 = settings: peptide sequence: VAAAVALTR; direction: stabilized; replicate design: treated separately
Method: as §1

UniProt P06710 = settings: peptide sequence: ALDVEQIR; direction: stabilized; replicate design: treated separately
Method: as §1

UniProt P09980 = settings: peptide sequence: DYAILYR; direction: stabilized; replicate design: treated separately
Chain of UniProt P09980 (P09980 whole entry): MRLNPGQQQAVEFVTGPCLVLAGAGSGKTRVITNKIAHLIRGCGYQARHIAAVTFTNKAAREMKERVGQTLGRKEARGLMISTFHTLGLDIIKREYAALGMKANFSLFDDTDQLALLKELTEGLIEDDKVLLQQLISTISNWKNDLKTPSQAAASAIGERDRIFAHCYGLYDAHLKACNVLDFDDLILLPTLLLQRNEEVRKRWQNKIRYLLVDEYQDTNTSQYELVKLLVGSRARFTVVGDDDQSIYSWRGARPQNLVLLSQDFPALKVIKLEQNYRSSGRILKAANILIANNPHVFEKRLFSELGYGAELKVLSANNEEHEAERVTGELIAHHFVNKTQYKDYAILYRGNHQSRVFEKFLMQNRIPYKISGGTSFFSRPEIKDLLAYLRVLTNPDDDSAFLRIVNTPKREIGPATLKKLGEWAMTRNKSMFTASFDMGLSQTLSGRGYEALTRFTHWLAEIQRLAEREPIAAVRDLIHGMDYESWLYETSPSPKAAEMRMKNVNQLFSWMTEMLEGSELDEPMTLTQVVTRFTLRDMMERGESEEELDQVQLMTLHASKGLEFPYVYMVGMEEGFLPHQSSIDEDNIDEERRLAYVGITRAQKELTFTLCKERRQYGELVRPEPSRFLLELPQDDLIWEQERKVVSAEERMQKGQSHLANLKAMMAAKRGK
Method: as §1

UniProt P0A6H5 = settings: peptide sequence: LANAPFIK; direction: stabilized; replicate design: treated separately
Method: as §1

UniProt P0AA41 = settings: peptide sequence: EDKGPQPAVTHYR; direction: stabilized; replicate design: treated separately
Method: as §1

UniProt P0AAB8 = settings: peptide sequence: EQCDLLVCGHHHSFINR; direction: stabilized; replicate design: treated separately
Method: as §1

UniProt P0ACL0 = settings: peptide sequence: HVMLVVDHSK; direction: stabilized; replicate design: treated separately
Chain of UniProt P0ACL0 (P0ACL0 whole entry): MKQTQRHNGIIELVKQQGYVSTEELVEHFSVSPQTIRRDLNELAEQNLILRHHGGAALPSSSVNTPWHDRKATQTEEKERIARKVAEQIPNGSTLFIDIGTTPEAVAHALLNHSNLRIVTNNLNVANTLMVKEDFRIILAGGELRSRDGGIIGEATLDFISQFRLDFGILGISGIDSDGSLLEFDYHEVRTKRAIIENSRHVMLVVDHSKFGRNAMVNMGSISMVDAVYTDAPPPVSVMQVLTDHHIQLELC
Method: as §1

UniProt P0ACW4 = settings: peptide sequence: GGISHCTAGGKFVCNDGSISASK; direction: stabilized; replicate design: treated separately
Chain of UniProt P0ACW4 (P0ACW4 whole entry): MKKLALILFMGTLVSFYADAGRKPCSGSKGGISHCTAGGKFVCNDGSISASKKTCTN
Method: as §1

UniProt P13000 = settings: peptide sequence: TVASCALLQAAK; direction: stabilized; replicate design: treated separately
Method: as §1

UniProt P13458 = settings: peptide sequence: LESTFAVK; direction: stabilized; replicate design: treated separately
Method: as §1

UniProt P18392 = settings: peptide sequence: EHIFEPFVR; direction: stabilized; replicate design: treated separately
Method: as §1

UniProt P20083 = settings: peptide sequence: RDGQVYNIAFENGEK; direction: stabilized; replicate design: treated separately
Chain of UniProt P20083 (P20083 whole entry): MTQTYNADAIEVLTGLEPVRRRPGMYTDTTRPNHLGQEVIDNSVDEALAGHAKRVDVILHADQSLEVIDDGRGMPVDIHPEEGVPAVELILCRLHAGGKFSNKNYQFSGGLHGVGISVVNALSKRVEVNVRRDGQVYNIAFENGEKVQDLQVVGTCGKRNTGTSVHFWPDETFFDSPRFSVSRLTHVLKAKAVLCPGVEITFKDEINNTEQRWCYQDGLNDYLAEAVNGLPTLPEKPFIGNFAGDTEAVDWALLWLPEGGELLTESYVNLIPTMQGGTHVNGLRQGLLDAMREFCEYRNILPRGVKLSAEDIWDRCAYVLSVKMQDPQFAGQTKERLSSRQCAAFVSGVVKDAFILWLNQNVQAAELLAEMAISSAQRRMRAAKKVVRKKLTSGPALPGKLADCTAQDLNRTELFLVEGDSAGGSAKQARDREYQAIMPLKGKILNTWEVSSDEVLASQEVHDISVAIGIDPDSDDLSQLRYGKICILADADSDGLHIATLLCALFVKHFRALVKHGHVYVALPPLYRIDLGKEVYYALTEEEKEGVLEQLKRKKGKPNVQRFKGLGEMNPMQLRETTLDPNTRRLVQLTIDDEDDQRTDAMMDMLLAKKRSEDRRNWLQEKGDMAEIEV
Method: as §1

UniProt P21345 = settings: peptide sequence: EVLGKFDK; direction: stabilized; replicate design: treated separately
Method: as §1

UniProt P21507 = settings: peptide sequence: DVLGSAPTGTGK; direction: stabilized; replicate design: treated separately
Chain of UniProt P21507 (P21507 whole entry): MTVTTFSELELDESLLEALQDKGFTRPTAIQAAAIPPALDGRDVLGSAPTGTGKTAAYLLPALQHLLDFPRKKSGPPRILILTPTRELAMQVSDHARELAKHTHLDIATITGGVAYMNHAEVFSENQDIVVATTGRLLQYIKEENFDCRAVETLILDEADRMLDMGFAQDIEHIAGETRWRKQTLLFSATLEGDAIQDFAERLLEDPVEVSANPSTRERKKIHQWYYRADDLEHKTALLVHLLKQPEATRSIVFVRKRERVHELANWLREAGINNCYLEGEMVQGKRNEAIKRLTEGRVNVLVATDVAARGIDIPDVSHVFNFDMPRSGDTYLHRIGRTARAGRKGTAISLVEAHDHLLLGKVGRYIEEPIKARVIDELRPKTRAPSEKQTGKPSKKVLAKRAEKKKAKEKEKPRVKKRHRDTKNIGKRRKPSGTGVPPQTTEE
Method: as §1

UniProt P22106 = settings: peptide sequence: QALEDSVK; direction: stabilized; replicate design: treated separately
Chain of UniProt P22106 (P22106 whole entry): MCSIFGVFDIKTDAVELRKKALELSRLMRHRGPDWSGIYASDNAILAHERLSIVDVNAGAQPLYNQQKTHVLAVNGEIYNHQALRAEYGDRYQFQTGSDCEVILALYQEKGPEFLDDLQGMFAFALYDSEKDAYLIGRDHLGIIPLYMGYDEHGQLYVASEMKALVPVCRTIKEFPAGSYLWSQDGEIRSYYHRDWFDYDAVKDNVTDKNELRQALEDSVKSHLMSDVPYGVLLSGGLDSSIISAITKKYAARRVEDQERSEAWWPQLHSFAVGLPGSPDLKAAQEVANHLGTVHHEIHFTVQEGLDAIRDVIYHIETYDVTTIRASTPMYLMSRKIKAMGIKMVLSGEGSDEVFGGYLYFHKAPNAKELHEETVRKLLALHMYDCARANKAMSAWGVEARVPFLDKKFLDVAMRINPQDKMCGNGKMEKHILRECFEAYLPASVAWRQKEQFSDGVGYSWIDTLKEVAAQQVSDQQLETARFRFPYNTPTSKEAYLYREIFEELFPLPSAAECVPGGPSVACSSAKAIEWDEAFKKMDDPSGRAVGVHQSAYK
Method: as §1

UniProt P23331 = settings: peptide sequence: AEHEQQAIHCVLVDECQFLTR; direction: stabilized; replicate design: treated separately
Method: as §1

UniProt P24230 = settings: peptide sequence: LVQGDVGSGK; direction: stabilized; replicate design: treated separately
Chain of UniProt P24230 (P24230 whole entry): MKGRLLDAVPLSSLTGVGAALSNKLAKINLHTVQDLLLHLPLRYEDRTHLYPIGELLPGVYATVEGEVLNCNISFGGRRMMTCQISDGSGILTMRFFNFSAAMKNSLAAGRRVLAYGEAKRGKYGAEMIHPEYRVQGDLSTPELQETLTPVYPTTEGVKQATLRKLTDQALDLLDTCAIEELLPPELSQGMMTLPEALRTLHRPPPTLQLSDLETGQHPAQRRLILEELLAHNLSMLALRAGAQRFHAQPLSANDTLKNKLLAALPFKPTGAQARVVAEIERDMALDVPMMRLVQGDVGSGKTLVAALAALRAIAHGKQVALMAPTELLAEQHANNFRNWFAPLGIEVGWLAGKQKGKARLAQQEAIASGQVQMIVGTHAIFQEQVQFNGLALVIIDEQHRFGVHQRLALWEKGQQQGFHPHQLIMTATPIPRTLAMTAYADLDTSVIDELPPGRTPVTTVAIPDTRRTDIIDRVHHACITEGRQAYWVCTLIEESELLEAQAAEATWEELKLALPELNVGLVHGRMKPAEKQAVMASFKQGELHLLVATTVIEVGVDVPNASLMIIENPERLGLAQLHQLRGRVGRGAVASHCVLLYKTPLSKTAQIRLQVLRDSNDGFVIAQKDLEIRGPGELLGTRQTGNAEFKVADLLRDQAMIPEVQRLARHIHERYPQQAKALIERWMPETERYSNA
Method: as §1

UniProt P25742 = settings: peptide sequence: GCETKPITGLAGK; direction: stabilized; replicate design: treated separately
Chain of UniProt P25742 (P25742 whole entry): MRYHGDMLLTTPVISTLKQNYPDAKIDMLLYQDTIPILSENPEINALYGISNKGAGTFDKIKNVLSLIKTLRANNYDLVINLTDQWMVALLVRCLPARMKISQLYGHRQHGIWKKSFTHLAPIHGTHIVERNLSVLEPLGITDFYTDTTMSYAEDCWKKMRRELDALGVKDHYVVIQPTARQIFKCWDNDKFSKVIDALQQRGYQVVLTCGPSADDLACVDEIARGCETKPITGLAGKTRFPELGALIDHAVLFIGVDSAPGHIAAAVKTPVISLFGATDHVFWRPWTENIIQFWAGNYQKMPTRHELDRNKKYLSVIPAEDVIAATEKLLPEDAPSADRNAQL
Method: as §1

UniProt P27300 = settings: peptide sequence: SVDAVIVNGGVPR; direction: stabilized; replicate design: treated separately
Method: as §1

UniProt P36879 = settings: peptide sequence: KTYPGGVQALR; direction: stabilized; replicate design: treated separately
Chain of UniProt P36879 (P36879 whole entry): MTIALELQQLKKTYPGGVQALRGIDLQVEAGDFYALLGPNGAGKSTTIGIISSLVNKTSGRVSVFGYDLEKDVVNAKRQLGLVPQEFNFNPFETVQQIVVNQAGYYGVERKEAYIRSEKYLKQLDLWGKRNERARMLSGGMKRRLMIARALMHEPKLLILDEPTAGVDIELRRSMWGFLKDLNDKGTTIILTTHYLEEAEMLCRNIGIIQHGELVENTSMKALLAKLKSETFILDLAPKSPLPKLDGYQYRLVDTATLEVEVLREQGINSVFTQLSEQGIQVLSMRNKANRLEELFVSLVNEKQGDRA
Method: as §1

UniProt P37344 = settings: peptide sequence: ETLLNYR; direction: stabilized; replicate design: treated separately
Chain of UniProt P37344 (P37344 whole entry): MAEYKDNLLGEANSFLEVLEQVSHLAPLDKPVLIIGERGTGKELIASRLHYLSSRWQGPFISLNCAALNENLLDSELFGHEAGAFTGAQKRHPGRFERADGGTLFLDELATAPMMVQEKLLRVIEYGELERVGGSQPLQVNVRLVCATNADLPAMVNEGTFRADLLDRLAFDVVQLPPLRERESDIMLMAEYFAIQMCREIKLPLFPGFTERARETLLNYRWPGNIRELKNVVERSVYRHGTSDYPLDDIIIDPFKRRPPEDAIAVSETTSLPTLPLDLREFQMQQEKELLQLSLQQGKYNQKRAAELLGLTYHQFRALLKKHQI
Method: as §1

UniProt P64610 = settings: peptide sequence: YYAHLGR; direction: stabilized; replicate design: treated separately
Method: as §1

UniProt P76014 = settings: peptide sequence: VVEKLPAIADKDIGFILK; direction: stabilized; replicate design: treated separately
Method: as §1

UniProt P76192 = settings: peptide sequence: VLPAEEYAEIR; direction: stabilized; replicate design: treated separately
Method: as §1

UniProt P76256 = settings: peptide sequence: GPGSFTGVR; direction: stabilized; replicate design: treated separately
Method: as §1

UniProt P76419 = settings: peptide sequence: GGDCAPTREELLLAHK; direction: stabilized; replicate design: treated separately
Chain of UniProt P76419 (P76419 whole entry): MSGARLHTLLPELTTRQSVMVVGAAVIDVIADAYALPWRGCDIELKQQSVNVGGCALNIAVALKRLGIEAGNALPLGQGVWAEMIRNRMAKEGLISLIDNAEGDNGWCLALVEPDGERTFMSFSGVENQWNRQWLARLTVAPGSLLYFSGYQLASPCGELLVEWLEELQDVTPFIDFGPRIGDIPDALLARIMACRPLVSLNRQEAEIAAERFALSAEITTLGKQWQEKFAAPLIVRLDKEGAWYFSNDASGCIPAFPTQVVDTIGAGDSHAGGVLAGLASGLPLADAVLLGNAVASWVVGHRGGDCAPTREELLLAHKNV
Method: as §1

UniProt P77499 = settings: peptide sequence: GKDLLALSPEDR; direction: stabilized; replicate design: treated separately
Method: as §1

UniProt Q06065 = settings: peptide sequence: QPVCNAGEVK; direction: stabilized; replicate design: treated separately
Method: as §1

Nc1ncnc2c1ncn2[C@@H]1O[C@H](COP(=O)(O)OP(=O)(O)OP(=O)(O)O)[C@@H](O)[C@H]1O [adenosine 5'-triphosphate]
Settings | pEC50 of peptide local stability change
UniProt P0A6H5 | 3.26
UniProt P0AA41 | 2.34
UniProt P0AAB8 | 3.82
UniProt P0ACL0 | 4.44
UniProt P0ACW4 | 2.19
UniProt P00452 | 3.75
UniProt P03018 | 3.07
UniProt P04425 | 3.85
UniProt P04993 | 2.84
UniProt P06710 | 3.78
UniProt P09980 | 4.14
UniProt P13000 | 4.87
UniProt P13458 | 2.9
UniProt P18392 | 2.88
UniProt P20083 | 3.38
UniProt P21345 | 2.25
UniProt P21507 | 4.35
UniProt P22106 | 2.42
UniProt P23331 | 3.2
UniProt P24230 | 2.78
UniProt P25742 | 2.67
UniProt P27300 | 3.18
UniProt P36879 | 3.73
UniProt P37344 | 3.2
UniProt P64610 | 4.1
UniProt P76014 | 3.61
UniProt P76192 | 3.75
UniProt P76256 | 3.97
UniProt P76419 | 3.74
UniProt P77499 | 3.9
UniProt Q06065 | 3.47
